Laboratory results as given in publication PMC8456932, “Amphiphilic Iodine(III) Reagents for the Lipophilization of Peptides in Water” (Angewandte Chemie (International Ed. in English), 2021).
Each block holds one compound with its values, some of them ahead of it. Where a SMILES comes first, the peptide text is derived from it. The star is where a group is joined. Ethynyl(2-Si(iPr)3) = CC(C)[Si](C#C*)(C(C)C)C(C)C

Key:
Format in all cases: physicochemical
[1] = Partition coefficient (LogP), octanol/water method
Text: [24] Determined using the octanol/water method according to: J. A.Arnott, S. L.Planey, Expert Opin. Drug Discovery 2012, 7, 863–875.
Calibration with 11a was achieved through the preparation of several samples of different concentrations and their analysis on RP HPLC. These analyses were repeated three times in order to obtain an average curve of calibration. The following linear regression was obtained: Y = 470.12 X + 284.02 and R = 0.9887, where Y is the absorption in mAUs -1 at 214 nm and X the concentration of 11a in mM.
Figure S3. calibration curve of 11a.
Calculation of Partition coefficient ( LogP)4
2.5 mg (4.0 µmol) 11a was dissolved in 1.7 mL octanol -H2O mixture (0.85 mL 1 -Octanol + 0.85 mL milli-Q H2O) in a 5 mL vial. In order to mix the layers, the vial was shaken on vertex for 1 min. Then the mixture was transferred to a separating funnel. The separating funnel was closed and left standing for 3 h to separate the organic and the H2O layer. Both layers were taken separately and submitted tonreverse phase HPLC. The concentration of both layers was determined by HPLC - […]
Amount of 11a in 1-octanol = 2.41 mg/mL
Amount of 11a in H2O = 0.09 mg/mL
Partition coefficient (P) = amount of 11a in 1-octanol/ amount of 11a in H2O […]
Following the same procedure for starting material 11: LogP = -1.53
4 J. R. Espinosa, C. R. Wand, C. Vega, E. Sanz, D. Frenkel, J. Chem. Phys. 2018, 149, 224501.
(1 picture or pasted object on this page, not shown here)

[2] = Retention time in RP-HPLC as qualitative measure of lipophilicity; settings: analytical RP-HPLC
Protocol: For example, the retention time of peptide 11 shifted from 5.8 to 13.6 min for 11 a and 20.2 min for 11 b (See SI). The partition coefficient (LogP) of product 11 a was determined to be 1.53 compared with −1.43 for 11.[24] […]
followed by dimethylformamide wash (4 x 3 mL). Fmoc groups were then removed by shaking the resin with 20% v/v piperidine in dimethylformamide at 400 rpm, over 5 minutes. This step was carried out twice. Next, washing steps were achieved with dimethylformamide (5 x 3 mL). Finally, resin was dried with dichloromethane (5 x 3 mL).
Peptide cleavage and deprotection: Peptides were deprotected and cleaved from the resin under reducing conditions, by treatment with 2.5% v/v water and 2.5% v/v triisopropylsilane (TIPS) in neat trifluoroacetic acid (5 mL). The resulting mixture was shaken for 2 hours at 400 rpm, at room temperature. The resin was removed by filtration and peptides were precipitated in cold diethyl ether (20 mL), followed by a 2 hours incubation at -20 °C. Peptides were pelleted by centrifugation at 4000 rpm, at 4 °C, for 5 minutes. […]
A. Fractions containing the desired peptide were lyophilized. The purity was assessed by analyzing a 10-20 mM peptide solution by RP-HPLC (HPLC gradient: 100% A to 100% B in 30 minutes. At the same time, low-resolution mass spectrometric measurements were also acquired. […]

[3] = Solubility in water of EBX reagents
[4] = Cleavage of thioesters with hydroxylamine; settings: HPLC
Text: The obtained thioalkynes constitute a new type of lipophilic compounds lacking the electrophilic carbonyl group present in natural palmitoylated peptides, which is required for their hydrolysis. In presence of trifluoroacetic acid (TFA), clean hydration to give thioesters was observed (Scheme 5 a). This hydration can be performed in a one pot protocol with silylated and alkylated alkynes on both small and larger peptides to give thioesters such as 11 aa–bb, 17 aa–bb, 18 aa and 23 aa–bb in 58–82 % yield. 11 bb, 17 bb and 23 bb are then natural palmitoylated products. […] Numerous enzymatic and chemical methods have been reported for the cleavage of palmitoyl groups on cysteine.[25] […] Nevertheless, treatment with a KF solution followed by hydroxylamine also allowed to cleave this thioester with 90 % conversion. Taken together, our work therefore gives access to lipophilic peptide derivatives modifiable/cleavable under different conditions, which can be exploited depending on the desired application.
Cleavage of palmitoylthioester of Ac-Trp-Met-Asn-Ser-Thr-Gly-Phe-Thr-Lys-Val-Cys-Gly-Ala-NH2 (17bb) A 1.5 mL vial was charged with 17bb (0.5 mg, […],1.0 equiv.) 70 µL 1M NH2OH with a small magnetic bar. The NH2OH solution was freshly prepared in Milli Q water. Then the reaction mixture was stirred for 4 h at rt. […]
Yield for 17 and disulfide quantitative (retention time 5.0). […]

[5] = shake-flask 1-octanol/milli-Q H2O (0.85 mL + 0.85 mL), 2.5 mg, vortexed 1 min, left standing 3 h, both layers by RP-HPLC-UV 214 nm

Compound: CC(=O)N[C@@H](C)C(=O)N[C@@H](CSC#C[Si](C(C)C)(C(C)C)C(C)C)C(=O)NCC(=O)N[C@@H](Cc1ccccc1)C(N)=O [11a] (Ac-AC(Ethynyl(2-Si(iPr)3))GF-NH2)
logP [1, 5]: 1.53
partition coefficient (LogP) [1, 5]: 1.43
Partition coefficient (P) = amount in 1-octanol / amount in H2O ([1]; shake-flask 1-octanol/milli-Q H2O, HPLC-UV 214 nm): 26.78

Compound: CC[C@H](C)[C@H](NC(=O)[C@H](Cc1ccccc1)NC(=O)[C@H](CSC#C[Si](C(C)C)(C(C)C)C(C)C)NC(=O)[C@@H](NC(=O)[C@H](CCC(N)=O)NC(=O)[C@H](CSC#C[Si](C(C)C)(C(C)C)C(C)C)NC(=O)[C@H](Cc1c[nH]cn1)NC(=O)[C@H](Cc1ccccc1)NC(C)=O)C(C)C)C(=O)N[C@H](C(N)=O)[C@@H](C)O [24a, Alkynylated (Phe32-Thr40) Ac-Phe-His-Cys-Gln-Val-Cys-Phe-Ile-Thr-NH2] (Ac-FHC(Ethynyl(2-Si(iPr)3))QVC(Ethynyl(2-Si(iPr)3))FIT-NH2)
retention time (HPLC-MS of reaction mixture) ([2]; SI, HPLC gradient Method 1): 19.7

Compound: C14H29-EBX-SO3M [4b]
solubility in water [3]: 450 mg/mL
solubility in water ([3]; Supporting Information): 450 mg/mL

Compound: silylthioester of H-Ala-Cys-Ala-Phe-Lys-Asp-NH2 [18aa]
cleavage of the thioester by hydroxylamine ([4]; 1 M NH2OH in Milli Q water, rt, 4 h): reacts only very slowly
conversion in thioester cleavage with KF and hydroxylamine ([4]; KF (28.7 equiv) and 1M NH2OH, 37 °C, 14 h): 90%

Other lines, results leading:

retention time in RP-HPLC ([2]; HPLC gradient Method 3 per SI): 5.8 min
Compound: CC(=O)N[C@@H](C)C(=O)N[C@@H](CS)C(=O)NCC(=O)N[C@@H](Cc1ccccc1)C(N)=O [compound 11, Ac-Ala-Cys-Gly-Phe-NH2] (Ac-ACGF-NH2)

increase of solubility in water compared to TIPS-EBX (1) ([3]; 4a vs 1, water): more than fifty fold
solubility in water [3]: 0.46 mg/mL
solubility in water ([3]; Supporting Information): 460 mg/mL
Compound: K/Na-5-sulfonate TIPS-EBX-SO3M [4a]
